Legend:
[1] = UV/Vis release rate measurement of Bitrex in water; assay type: physicochemical; conditions: 100 mg in 40 ml water, shaken
Procedure: 2 ml of the mixture was removed at each time interval for analysis.

[2] = Visual release rate test of Bitrex in water; assay type: physicochemical; conditions: after 15 minutes; 0.4 mg agitated in 10 ml water
Procedure: 0.4 mg of sample was agitated in 10 ml of water and observed over 8 hours.

% release of Bitrex relative to the total content ([1]; 5 minutes): 99.6% | % release of Bitrex relative to the total content ([1]; 15 minutes): 99.8% | visual observation of dissolution [2]: fully dissolved
Compound: CC[N+](CC)(CC(=O)Nc1c(C)cccc1C)Cc1ccccc1 [Uncoated Bitrex, Denatonium benzoate]

— patent US20140206534A1, “FORMULATION” (SYNGENTA LIMITED, priority 2011, published 2014)
